Experiment [1] concerns NK-92 cells against Reh cells. The experiment in a line: NK-92 cytolytic assay against NK resistant Reh target cells. The conditions noted are these: 30 μM three days, IL-2 100 IU/mL, 3 h assay. The experiment is classed as cell-based, Human. The procedure: Human NK cell line NK-92 was purchased from American Type Culture Collection (ATCC) and cultured in α-MEM Essential Medium (no ribonucleoside and deoxyribonucleoside) supplemented with 0.2 mM Myo-inositol, 0.02 mM Folic Acid, 0.1 mM β-mercaptoethanol, 1% of Non-essential Amino Acids, 1×L-Glutamax, 1% of Penicillin/Streptomycin, 12.5% of heat-inactivated Horse, and 12.5% of heat-inactivated Characterized Fetal Bovine Serum or FBS. The media was supplemented freshly with 200 IU/mL of IL-2 upon cell thawing for one passage and 100 IU/mL of IL-2 for cell expansion. Human tumor cell lines K-562 and Reh were purchased from ATCC and were cultured in RPM11640 Medium supplemented with 1% of Penicillin/Streptomycin and 10% of heat inactivated FBS. HEK293T/17 cells and HCT116 cells were cultured in Dulbecco's Modified Eagle's Medium (DMEM) High Glucose Medium supplemented with 1% of Penicillin/Streptomycin and 10% of FBS. All cell lines were maintained in 5% CO2, 37° C. incubator, except that NK-92 were maintained in 6.5% CO2 incubator at 37° C. […]
NK-92 anti-tumor cytolysis function was assessed by flow cytometry-based analysis. […] Flow cytometry sample acquisition was performed with BDO LSRFortessa™ with a UV laser at Flow Cytometry Core Facility, McGill University, and data was analyzed with FlowJo™ 10.7.1 and summarized with Prism™ 9 (GraphPad™). […]

Experiment [2] deals with PTPN1 and PTPN2 catalytic domain. The conditions noted are these: Montalibet J, et al., J Biol Chem 2006; cited from earlier work.

Take “7-bromo-6-phosphono(difluoro-methyl)-3-napthalenonitrile [L598]”: the “NK-92 cytolysis towards NK resistant target cells Reh” value in experiment [1] is given as “did not improve”. Further, in experiment [2], the “binding specificity for PTPN1 and PTPN2 over other protein tyrosine phosphatases” value is “binds specifically to their catalytic domain but no other protein tyrosine phosphatases”.

(Values after patent US20250025500A1, “PHOSPHATASE INHIBITORS AS NK CELLS MODULATORS FOR THE TREATMENT OF CANCER” (Kanyr Pharma Inc., priority 2021, published 2025).)
